“And” between values parts separate entries of the source, which are not always exact repeats. Identical values can stand only once.

These results are taken from ChEMBL document CHEMBL3046648, “Herbicidally Active N-(1-Arylethenyl)-2-chloroacetamides Bearing an Alkyloxyalkyl Moiety” (1991).

What all share (format): functional
Assay [1] concerns Kummerowia striata. The assay is described as follows: Herbicidal activity against Kummerowia striata assessed as killing at 2.5 g/a at 25 degC measured after 2 weeks.
In assay [2] the test system is Setaria viridis. The assay is described as follows: Herbicidal activity against Setaria viridis (green foxtail) assessed as killing at 2.5 g/a at 25 degC measured after 2 weeks.
Assay [3] has as its system Amaranthus blitum subsp. oleraceus. Description: Herbicidal activity against Amaranthus blitum subsp. oleraceus assessed as killing at 2.5 g/a at 25 degC measured after 2 weeks.
The subject of assay [4] is Setaria viridis. The assay is described as follows: Herbicidal activity against Setaria viridis (green foxtail) assessed as killing at 10 g/a at 25 degC measured after 2 weeks.
Assay [5] concerns Kummerowia striata. Description: Herbicidal activity against Kummerowia striata assessed as killing at 10 g/a at 25 degC measured after 2 weeks.
For assay [6], the system named is Stellaria media. Description: Herbicidal activity against Stellaria media assessed as killing at 2.5 g/a at 25 degC measured after 2 weeks.
Assay [7] deals with Digitaria ciliaris. The assay is described as follows: Herbicidal activity against Digitaria ciliaris assessed as killing at 2.5 g/a at 25 degC measured after 2 weeks.
Assay [8] concerns Poa annua. Description: Herbicidal activity against Poa annua assessed as killing at 10 g/a at 25 degC measured after 2 weeks.
Assay [9] concerns Stellaria media. Description: Herbicidal activity against Stellaria media assessed as killing at 10 g/a at 25 degC measured after 2 weeks.
The test system of assay [10] is Amaranthus blitum subsp. oleraceus. Description: Herbicidal activity against Amaranthus blitum subsp. oleraceus assessed as killing at 10 g/a at 25 degC measured after 2 weeks.
The subject of assay [11] is Digitaria ciliaris. The assay is described as follows: Herbicidal activity against Digitaria ciliaris assessed as killing at 10 g/a at 25 degC measured after 2 weeks.
The subject of assay [12] is Poa annua. The assay is described as follows: Herbicidal activity against Poa annua assessed as killing at 2.5 g/a at 25 degC measured after 2 weeks.
Assay [13] concerns Pontederia vaginalis. The assay is described as follows: Herbicidal activity against Monochoria vaginalis assessed as killing at 1 g/a at 25 degC measured after 3 weeks.
For assay [14], the system named is Schoenoplectiella juncoides. Description: Herbicidal activity against Schoenoplectiella juncoides assessed as killing at 1 g/a at 25 degC measured after 3 weeks.
The test system of assay [15] is Cyperus difformis. Description: Herbicidal activity against Cyperus difformis assessed as killing at 1 g/a at 25 degC measured after 3 weeks.
Assay [16] is described as follows: Herbicidal activity against annual broad-leaf weeds assessed as killing at 10 g/a at 25 degC measured after 3 weeks.
Assay [17] deals with Pontederia vaginalis. The assay is described as follows: Herbicidal activity against Monochoria vaginalis assessed as killing at 10 g/a at 25 degC measured after 3 weeks.
Assay [18] relates to Echinochloa oryzicola. Description: Herbicidal activity against Echinochloa oryzicola assessed as killing at 1 g/a at 25 degC measured after 3 weeks.
Assay [19] deals with Cyperus difformis. The assay is described as follows: Herbicidal activity against Cyperus difformis assessed as killing at 10 g/a at 25 degC measured after 3 weeks.
Assay [20] concerns Schoenoplectiella juncoides. The assay is described as follows: Herbicidal activity against Schoenoplectiella juncoides assessed as killing at 10 g/a at 25 degC measured after 3 weeks.
For assay [21], the system named is Echinochloa oryzicola. The assay is described as follows: Herbicidal activity against Echinochloa oryzicola assessed as killing at 10 g/a at 25 degC measured after 3 weeks.
Assay [22] in a line: Herbicidal activity against annual broad-leaf weeds assessed as killing at 1 g/a at 25 degC measured after 3 weeks.

Consider `CCc1cccc(C)c1N(C(=O)CCl)C(C)COC` (configuration not stated) [METOLACHOR], for which the Activity with Kummerowia striata [1] came out at 100%; in the assay with Setaria viridis [2], 80%; in assay [3] it was 100%; with Setaria viridis [4] it was 100%; in the assay with Kummerowia striata [5], 80%; in the assay on Stellaria media [6] it was 60%. Also, the Activity with Digitaria ciliaris [7] came out at 100%; with Poa annua [8] it was 100%; with Stellaria media [9], 60%; in assay [10] it was 80%; in the assay with Digitaria ciliaris [11] it was 100%; with Poa annua [12] it was 80%.

Turning to `CCOCCN(C(=O)CCl)C(=C(C)C)c1ccccc1` [PETHOXAMID], the Activity was 80% in the assay with Kummerowia striata [1]; 100% in the assay with Pontederia vaginalis [13]; 100% in the assay with Setaria viridis [2]; 100% in [3]; 100% in the assay with Setaria viridis [4]; 80% with Kummerowia striata [5]. The Activity in the assay with Stellaria media [6] amounted to 80%; in the assay with Digitaria ciliaris [7], 100%; in assay [14] it was 100%; with Cyperus difformis [15], 100%; in [16], 100%; in the assay with Pontederia vaginalis [17], 100%. The Activity (in the assay on Echinochloa oryzicola [18]; with Cyperus difformis [19]; in assay [20]; with Poa annua [8]; with Stellaria media [9]; in assay [10]) was 100% each time. In addition, the Activity with Digitaria ciliaris [11] is reported as 100%; in the assay on Echinochloa oryzicola [21], 100%; in the assay on Poa annua [12], 80%.

On to `CCc1cccc(CC)c1N(COC)C(=O)CCl` [ALACHLOR], for which the Activity is on record as 60% with Kummerowia striata [1]; 80% in the assay with Setaria viridis [2]; 80% in [3]; 100% in the assay on Setaria viridis [4]; 80% with Kummerowia striata [5]; 40% with Stellaria media [6]. Moreover, the Activity in the assay with Digitaria ciliaris [7] was 100%; with Poa annua [8], 100%; with Stellaria media [9] it was 80%; in assay [10] it was 100%; in the assay with Digitaria ciliaris [11], 100%; with Poa annua [12], 80%.

`COCCN(C(=O)CCl)C(=C(C)C)c1cccs1`: the Activity (in the assay on Pontederia vaginalis [13]; in assay [14]; with Cyperus difformis [15]; in assay [16]; in the assay with Pontederia vaginalis [17]; with Echinochloa oryzicola [18]) was 100% in each case. For the same molecule, the Activity stood at 0% in assay [22], 100% with Cyperus difformis [19], 100% in assay [20] and 100% in the assay on Echinochloa oryzicola [21].

As for `CC=C(c1ccccc1)N(CCOC)C(=O)CCl`, the Activity in the assay with Pontederia vaginalis [13] worked out at 0%; in assay [14], 0%; in the assay with Cyperus difformis [15], 60%; in [16], 100%; in the assay with Pontederia vaginalis [17], 100%; in the assay on Echinochloa oryzicola [18], 40%. The Activity in assay [22] was found to be 0%; in the assay on Cyperus difformis [19] it was 100%; in assay [20], 100%; with Echinochloa oryzicola [21], 100%.

On to `COC(CN(C(=O)CCl)C(=C(C)C)c1ccccc1)OC`, for which the Activity in the assay with Pontederia vaginalis [13] was 0%; in [14] it was 0%; in the assay on Cyperus difformis [15] it was 100%; in assay [16], 100%; in the assay with Pontederia vaginalis [17] it was 100%; with Echinochloa oryzicola [18] it was 40%. Also, the Activity was 80% and 100% in assay [22]; 100% in the assay on Cyperus difformis [19]; 100% in assay [20]; 100% in the assay with Echinochloa oryzicola [21].

For the molecule `COCCN(C(=O)CCl)C(=C(C)C)c1cccc(Cl)c1`, the Activity in the assay on Pontederia vaginalis [13] came to 60%; in assay [14], 80%; in the assay with Cyperus difformis [15], 80%; in assay [16] it was 100%; in the assay with Pontederia vaginalis [17], 100%; in the assay on Echinochloa oryzicola [18], 80%. The Activity in [22] was determined as 80%; in the assay with Cyperus difformis [19], 100%; in assay [20] it was 100%; in the assay with Echinochloa oryzicola [21], 100%.

As to `COCCN(C(=O)CCl)C(=C1CCCCC1)c1ccccc1`, the Activity in the assay with Pontederia vaginalis [13] was found to be 0%; in assay [14], 0%; with Cyperus difformis [15], 0%; in assay [16], 80%; in the assay with Pontederia vaginalis [17], 100%; in the assay on Echinochloa oryzicola [18], 20%. Further, the Activity in assay [22] came to 60%; in the assay with Cyperus difformis [19] it was 100%; in assay [20], 100%; in the assay with Echinochloa oryzicola [21], 100%.

For `COCCN(C(=O)CCl)C(=C(C)C)c1cccc(C)c1`, the Activity (in the assay with Pontederia vaginalis [13]; in [14]; with Cyperus difformis [15]; in [16]; in the assay with Pontederia vaginalis [17]; with Echinochloa oryzicola [18]) was 100% each time. The Activity (in assay [22]; with Cyperus difformis [19]; in [20]; with Echinochloa oryzicola [21]) was 100% each time.

Regarding `COCCN(C(=O)CCl)C(=C(C)C)c1ccccc1`, the Activity was 80% with Kummerowia striata [1]; 100% with Pontederia vaginalis [13]; 80% in the assay on Setaria viridis [2]; 60% in [3]; 100% in the assay on Setaria viridis [4]; 80% in the assay on Kummerowia striata [5]. The Activity in the assay with Stellaria media [6] was found to be 60%; with Digitaria ciliaris [7], 100%; in assay [14], 100%; in the assay with Cyperus difformis [15], 100%; in assay [16], 100%; with Pontederia vaginalis [17] it was 100%. The Activity in the assay with Echinochloa oryzicola [18] was 100%; in assay [22], 100%; in the assay on Cyperus difformis [19] it was 100%; in [20], 100%; in the assay on Poa annua [8], 100%; with Stellaria media [9], 80%. The Activity (in assay [10]; in the assay on Digitaria ciliaris [11]; in the assay on Echinochloa oryzicola [21]; with Poa annua [12]) was 100% in each case.

Consider `CCC(C)=C(c1ccccc1)N(CCOC)C(=O)CCl`, for which the Activity in the assay on Pontederia vaginalis [13] is 0%; in [14], 0%; with Cyperus difformis [15], 80%; in assay [16], 100%; in the assay with Pontederia vaginalis [17], 100%; in the assay on Echinochloa oryzicola [18] it was 80%. Besides, the Activity is 40% in assay [22], 100% in the assay on Cyperus difformis [19], 100% in assay [20] and 100% with Echinochloa oryzicola [21].
